Laboratory results: US20240327382A1 (ALMAC DISCOVERY LIMITED, priority 2021, published 2024)
pIC50: −log10 of the molar value.

molecular target: T1, Full-length USP19 (Homo sapiens, UniProt O94966); experiment: USP19 fluorescence polarisation (FP) assay, Ubiquitin-Lys-TAMRA substrate; format: biochemical; conditions: average of at least two duplicate experiments
T1 construct: Full-length USP19 was purchased from Boston Biochem (E-576); purchased Boston Biochem E-576
T1 sequence (O94966 1-1318): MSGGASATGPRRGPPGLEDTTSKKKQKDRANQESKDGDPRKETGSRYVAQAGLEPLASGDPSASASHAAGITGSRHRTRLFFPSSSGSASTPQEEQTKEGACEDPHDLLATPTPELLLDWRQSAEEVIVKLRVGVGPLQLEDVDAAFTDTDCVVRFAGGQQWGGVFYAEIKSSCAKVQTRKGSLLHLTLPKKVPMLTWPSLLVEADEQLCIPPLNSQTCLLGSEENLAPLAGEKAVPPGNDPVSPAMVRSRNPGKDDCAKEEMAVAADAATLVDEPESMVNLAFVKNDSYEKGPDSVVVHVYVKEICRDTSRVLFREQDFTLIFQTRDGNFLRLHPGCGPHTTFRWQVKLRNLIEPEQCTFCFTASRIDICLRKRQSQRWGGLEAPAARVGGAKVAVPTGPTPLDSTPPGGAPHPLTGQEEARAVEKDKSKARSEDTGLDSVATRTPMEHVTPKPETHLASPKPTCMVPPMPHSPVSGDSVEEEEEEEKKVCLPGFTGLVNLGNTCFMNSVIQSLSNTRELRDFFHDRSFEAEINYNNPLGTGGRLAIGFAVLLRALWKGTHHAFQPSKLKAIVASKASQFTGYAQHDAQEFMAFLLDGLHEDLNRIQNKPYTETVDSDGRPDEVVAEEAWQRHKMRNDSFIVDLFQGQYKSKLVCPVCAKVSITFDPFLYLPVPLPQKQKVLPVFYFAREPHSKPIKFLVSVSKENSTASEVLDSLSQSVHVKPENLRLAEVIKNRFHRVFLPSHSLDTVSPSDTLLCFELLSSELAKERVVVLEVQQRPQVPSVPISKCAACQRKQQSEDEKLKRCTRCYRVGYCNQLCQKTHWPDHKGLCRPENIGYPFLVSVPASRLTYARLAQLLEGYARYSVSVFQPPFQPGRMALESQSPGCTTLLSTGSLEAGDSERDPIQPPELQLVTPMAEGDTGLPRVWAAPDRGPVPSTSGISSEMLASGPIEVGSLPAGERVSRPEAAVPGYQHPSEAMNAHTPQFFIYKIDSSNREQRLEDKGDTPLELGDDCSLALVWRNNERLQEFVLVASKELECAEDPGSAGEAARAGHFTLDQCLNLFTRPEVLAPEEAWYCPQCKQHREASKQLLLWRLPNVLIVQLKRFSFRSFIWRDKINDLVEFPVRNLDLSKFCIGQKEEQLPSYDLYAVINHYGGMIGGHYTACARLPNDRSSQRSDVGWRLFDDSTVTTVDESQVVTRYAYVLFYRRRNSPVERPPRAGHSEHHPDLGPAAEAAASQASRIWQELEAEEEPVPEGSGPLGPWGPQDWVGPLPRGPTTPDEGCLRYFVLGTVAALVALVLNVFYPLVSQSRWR
How it was run: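 Full-length human USP19 (added at 2.5 nM) was preincubated 30 min at RT with inhibitor (serial dilutions 200 μM to 2 μM) in 50 mM HEPES pH 7.4, 150 mM NaCl, 5 mM DTT, 0.05% BSA, 0.05% CHAPS. Ubiquitin-Lys-TAMRA isopeptide substrate (added at 500 nM) started the reaction, and FP (Ex 530/Em 575 nm) was read every 15 min over 90 min. IC50 came from non-linear regression of signal normalised to no-compound control, averaged over at least two duplicate experiments.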

pIC50	Structure (SMILES)
> 8.00	CN[C@@H]1CCN(C(=O)N2CC[C@@H](Cn3cnc(C4CC4)cc3=O)C3(CCCC3)C2)[C@H](c2cc(F)ccc2F)C1 [Example 163, 6-Cyclopropyl-3-(((R)-7-((2S,4R)-2-(2,5-difluorophenyl)-4-(methylamino)piperidine-1-carbonyl)-7-azaspiro[4.5]decan-10-yl)methyl)pyrimidin-4(3H)-one]
4.70 to 6.00	N[C@@H]1CCN(C(=O)N2CC[C@H](Cn3ccc(-c4ccccc4)cc3=O)C3(CCCC3)C2)[C@H](c2ccccc2)C1 [Example 24, 1-(((S)-7-((2S,4R)-4-Amino-2-phenylpiperidine-1-carbonyl)-7-azaspiro[4.5]decan-10-yl)methyl)-4-phenylpyridin-2(1H)-one]
> 8.00	CN[C@@H]1CCN(C(=O)N2CC[C@@H](Cn3ccc(-c4ccccc4)cc3=O)C(C)(C)C2)[C@H](c2ccccc2)C1 [Example 72, 1-(((R)-3,3-Dimethyl-1-((2S,4R)-4-(methylamino)-2-phenylpiperidine-1-carbonyl)piperidin-4-yl)methyl)-4-phenylpyridin-2(1H)-one]
> 8.00	N[C@@H]1CCN(C(=O)N2CC[C@@H](Cn3ccc(-c4ccccc4)cc3=O)C3(CCCC3)C2)[C@H](c2cc(F)cc(F)c2)C1 [Example 108, 1-(((R)-7-((2S,4R)-4-Amino-2-(3,5-difluorophenyl)piperidine-1-carbonyl)-7-azaspiro[4.5]decan-10-yl)methyl)-4-phenylpyridin-2(1H)-one]
> 8.00	CCN[C@@H]1CCN(C(=O)N2CC[C@@H](Cn3ccc(Cl)cc3=O)C3(CCCC3)C2)[C@H](c2cc(F)ccc2F)C1 [Example 179, 4-Chloro-1-(((R)-7-((2S,4R)-2-(2,5-difluorophenyl)-4-(ethylamino)piperidine-1-carbonyl)-7-azaspiro[4.5]decan-10-yl)methyl)pyridin-2(1H)-one]
7.00 to 8.00	CC1(C)CN(C(=O)N2CCNC[C@H]2c2ccccc2)CCC1Cn1cnc(-c2ccccc2)cc1=O (stereo partly drawn) [Example 18, 3-((33-Dimethyl-1-((R)-2-phenylpiperazine-1-carbonyl)piperidin-4-yl)methyl)-6-phenylpyrimidin-4(3H)-one]
> 8.00	O=C(N1CC[C@@H](Cn2cnc(-c3ccccc3)cc2=O)C2(CCCC2)C1)N1CC[C@@H](NC2CC(F)(F)C2)C[C@H]1c1ccccc1 [Example 135, 3-(((R)-7-((2S,4R)-4-((3,3-Difluorocyclobutyl)amino)-2-phenylpiperidine-1-carbonyl)-7-azaspiro[4.5]decan-10-yl)methyl)-6-phenylpyrimidin-4(3H)-one]
6.00 to 7.00	Cn1ccc(N[C@@H]2CCN(C(=O)N3CC[C@@H](Cn4cnc(-c5ccccc5)cc4=O)C4(CCCC4)C3)[C@H](c3ccccc3)C2)n1 [Example 147, 3-(((R)-7-((2S,4R)-4-((1-Methyl-1H-pyrazol-3-yl)amino)-2-phenylpiperidine-1-carbonyl)-7-azaspiro[4.5]decan-10-yl)methyl)-6-phenylpyrimidin-4(3H)-one]
> 8.00	CN[C@@H]1CCN(C(=O)N2CC[C@@H](Cn3cnc(-c4ccccc4)cc3=O)C3(CCCC3)C2)[C@H](c2ccccc2)C1 [Example 56, 3-(((R)-7-((2S,4R)-4-(Methylamino)-2-phenylpiperidine-1-carbonyl)-7-azaspiro[4.5]decan-10-yl)methyl)-6-phenylpyrimidin-4(3H)-one]
7.00 to 8.00	N[C@@H]1CCN(C(=O)N2CCC(Cn3cnc(-c4ccccc4)cc3=O)CC2)[C@H](c2ccccc2)C1 [Example 9, 3-((1-((2S,4R)-4-Amino-2-phenylpiperidine-1-carbonyl)piperidin-4-yl)methyl)-6-phenylpyrimidin-4(3H)-one]
> 8.00	O=C(N1CC[C@@H](Cn2cnc(-c3ccccc3)cc2=O)C2(CCCC2)C1)N1CCNC[C@H]1c1ccccc1 (single isomer, unassigned) [Example 14]
4.70 to 6.00	C[C@H](CC(F)(F)F)C(=O)N1CCC(Cn2cnc(-c3ccccc3)cc2=O)C2(CCCC2)C1 (stereo partly drawn) [Example 4, 6-Phenyl-3-((7-((R)-4,4,4-trifluoro-2-methylbutanoyl)-7-azaspiro[4.5]decan-10-yl)methyl)pyrimidin-4(3H)-one]
> 8.00	CN[C@@H]1CCN(C(=O)N2CC[C@@H](Cn3cnc(-c4ccccc4OC)cc3=O)C3(CCCC3)C2)[C@H](c2cc(F)ccc2F)C1 [Example 99, 3-(((R)-7-((2S,4R)-2-(2,5-Difluorophenyl)-4-(methylamino)piperidine-1-carbonyl)-7-azaspiro[4.5]decan-10-yl)methyl)-6-(2-methoxyphenyl)pyrimidin-4(3H)-one]
7.00 to 8.00	COc1ccccc1-c1cc(=O)n(C[C@@H]2CCN(C(=O)N3CC[C@@H](N4CCOCC4)C[C@H]3c3ccccc3)CC23CCCC3)cn1 [Example 110, 6-(2-Methoxyphenyl)-3-(((R)-7-((2S,4R)-4-morpholino-2-phenylpiperidine-1-carbonyl)-7-azaspiro[4.5]decan-10-yl)methyl)pyrimidin-4(3H)-one]
7.00 to 8.00	N[C@@H]1CCN(C(=O)N2CCC(Cn3ccc(C(F)(F)F)cc3=O)C3(CCCC3)C2)[C@H](c2ccccc2)C1 (stereo partly drawn) [Example 43, 1-((7-((2S,4R)-4-Amino-2-phenylpiperidine-1-carbonyl)-7-azaspiro[4.5]decan-10-yl)methyl)-4-(trifluoromethyl) pyridin-2(1H)-one]
> 8.00	CN[C@@H]1CCN(C(=O)N2CC[C@@H](Cn3cnc(-c4ccccc4)cc3=O)C3(CCCC3)C2)[C@H](c2cc(F)ccc2F)C1 [Example 78, 3-(((R)-7-((2S,4R)-2-(2,5-Difluorophenyl)-4-(methylamino)piperidine-1-carbonyl)-7-azaspiro[4.5]decan-10-yl)methyl)-6-phenylpyrimidin-4(3H)-one]
> 8.00	CN[C@H]1C[C@@H](c2ccccc2)N(C(=O)N2CC[C@@H](Cn3cnc(-c4ccccc4)cc3=O)C3(CCCC3)C2)C1 [Example 90, 3-(((R)-7-((2S,4S)-4-(Methylamino)-2-phenylpyrrolidine-1-carbonyl)-7-azaspiro[4.5]decan-10-yl)methyl)-6-phenylpyrimidin-4(3H)-one]
> 8.00	N[C@@H]1CCN(C(=O)N2CCC(Cn3cnc(C4CC4)cc3=O)C3(CCCC3)C2)[C@H](c2ccccc2)C1 (stereo partly drawn) [Example 29, 3-((7-((2S,4R)-4-Amino-2-phenylpiperidine-1-carbonyl)-7-azaspiro[4.5]decan-10-yl)methyl)-6-cyclopropyl-pyrimidin-4(3H)-one]
> 8.00	CN[C@@H]1CCN(C(=O)N2CC[C@@H](Cn3cnc(-c4ccccc4F)cc3=O)C3(CCCC3)C2)[C@H](c2ccccc2)C1 [Example 109, 6-(2-Fluorophenyl)-3-(((R)-7-((2S,4R)-4-(methylamino)-2-phenylpiperidine-1-carbonyl)-7-azaspiro[4.5]decan-10-yl)methyl)pyrimidin-4(3H)-one]
> 8.00	N[C@@H]1CCN(C(=O)N2CC[C@@H](Cn3ccc(-c4ccccc4)cc3=O)C3(CCCC3)C2)[C@H](c2cc(F)ccc2F)C1 [Example 87, 1-(((R)-7-((2S,4R)-4-Amino-2-(2,5-difluorophenyl)piperidine-1-carbonyl)-7-azaspiro[4.5]decan-10-yl)methyl)-4-phenylpyridin-2(1H)-one]
7.00 to 8.00	N[C@@H]1CCN(C(=O)N2CCC(Cn3ccc4ccncc4c3=O)C3(CCCC3)C2)[C@H](c2ccccc2)C1 (stereo partly drawn) [Example 33, 2-((7-((2S,4R)-4-Amino-2-phenylpiperidine-1-carbonyl)-7-azaspiro[4.5]decan-10-yl)methyl)-2,7-naphthyridin-1(2H)-one]
> 8.00	CN[C@@H]1CCN(C(=O)N2CC[C@@H](Cn3cnc(-c4ccccc4OC)cc3=O)C3(CCCC3)C2)[C@H](c2ccc(F)cc2)C1 [Example 104, 3-(((R)-7-((2S,4R)-2-(4-Fluorophenyl)-4-(methylamino)piperidine-1-carbonyl)-7-azaspiro[4.5]decan-10-yl)methyl)-6-(2-methoxyphenyl)pyrimidin-4(3H)-one]
